Data reported in patent US6525001B1, “Substituted pyrimidine and pyridine herbicides” (Mid-American Commercialization Corporation, priority 1997, dated 2003).

Tests used:
Format in all cases: in vivo
[1] = tested on: duck salad (Heteranthera limosa); assay: Test B flood test
Summary of the method: (§1)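 Read-out is a visual response score from 0 (no effect) to 10 (complete control), assigned by comparison with untreated controls. Treatment was applied at the 2-leaf stage, and plants stayed in the greenhouse for twelve to sixteen days before scoring.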

[2] = tested on: bamyardgrass (Echinochloa crus-galli); assay: Test B flood test
Summary of the method: as §1

[3] = tested on: smallflower flatsedge (Cyperus difformis); assay: Test B flood test
Summary of the method: as §1

rice (Oryza sativa) = assay: Test B flood test
Summary of the method: as §1

[4] = tested on: sugar beet (Beta vulgaris); assay: Test B pre-/postemergence; parameters: key: 0 is no effect; 10 is complete control
Summary of the method: (§2)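 Compounds in a surfactant-containing, non-phytotoxic solvent blend are applied to freshly planted seed (preemergence) and, concurrently, to seedlings of 2 to 18 cm at 1–4 leaves (postemergence). Plants stay in the greenhouse twelve to sixteen days and are then scored visually from 0 (no effect) to 10 (complete control).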

[5] = tested on: momingglory (Ipomoea hederacea); assay: Test B pre-/postemergence; parameters: key: 0 is no effect; 10 is complete control
Summary of the method: as §2

wild oat (Avena fatua) = assay: Test B pre-/postemergence; parameters: key: 0 is no effect; 10 is complete control
Summary of the method: as §2

soybean (Glycine max) = assay: Test B pre-/postemergence; parameters: key: 0 is no effect; 10 is complete control
Summary of the method: as §2

[6] = tested on: bedstraw (Galium aparine); assay: Test B pre-/postemergence; parameters: key: 0 is no effect; 10 is complete control; conditions: for Bedstraw plant response rating: Preemergence
Summary of the method: as §2

[7] = tested on: cocklebur (Xanthium strumarium); assay: Test B pre-/postemergence; parameters: key: 0 is no effect; 10 is complete control; conditions: for Cocklebur plant response rating: Preemergence
Summary of the method: as §2

rape (Brassica napus) = assay: Test B pre-/postemergence; parameters: key: 0 is no effect; 10 is complete control
Summary of the method: as §2

[8] = tested on: blackgrass (Alopecurus myosuroides); assay: Test B pre-/postemergence; parameters: key: 0 is no effect; 10 is complete control; conditions: for Blackgrass plant response rating: Preemergence
Summary of the method: as §2

[9] = tested on: purple nutsedge (Cyperus rotundus); assay: Test B pre-/postemergence; parameters: key: 0 is no effect; 10 is complete control
Summary of the method: as §2

[10] = tested on: broadleaf signalgrass (Brachiaria decumbens); assay: Test B pre-/postemergence; parameters: key: 0 is no effect; 10 is complete control; conditions: for B. signalgrass plant response rating: Preemergence
Summary of the method: as §2

[11] = tested on: crabgrass (Digitaria sanguinalis); assay: Test B pre-/postemergence; parameters: key: 0 is no effect; 10 is complete control; conditions: for Crabgrass plant response rating: Preemergence
Summary of the method: as §2

[12] = tested on: wheat (Triticum aestivum); assay: Test B pre-/postemergence; parameters: key: 0 is no effect; 10 is complete control
Summary of the method: as §2

corn (Zea mays) = assay: Test B pre-/postemergence; parameters: key: 0 is no effect; 10 is complete control; conditions: for Corn plant response rating: Preemergence
Summary of the method: as §2

[13] = tested on: giant foxtail (Setaria faberii); assay: Test B pre-/postemergence; parameters: key: 0 is no effect; 10 is complete control
Summary of the method: as §2

[14] = tested on: velvetleaf (Abutilon theophrasti); assay: Test B pre-/postemergence; parameters: key: 0 is no effect; 10 is complete control
Summary of the method: as §2

[15] = tested on: pigweed (Amaranthus retroflexus); assay: Test B pre-/postemergence; parameters: key: 0 is no effect; 10 is complete control
Summary of the method: as §2

[16] = Rate 62 g/ha, Postemergence (flood test)
[17] = Rate 125 g/ha, Postemergence, flood test
[18] = Rate 250 g/ha, Postemergence (flood test species)
[19] = Rate 500 g/ha, Postemergence (flood test species)
[20] = Rate 125 g/ha, Postemergence section (flood test species)
[21] = Rate 250 g/ha, Postemergence (so in the source)

Cc1cnc(-c2ccc(C(F)(F)F)cc2)nc1Cc1cccc(C#N)c1 [Compound 32]
Plant response rating, Ducksalad [1, 16]: 2 | Plant response rating, Ducksalad [1, 17]: 3 | Plant response rating, Ducksalad [1, 18]: 4 | Plant response rating, Ducksalad [1, 19]: 6 | Plant response rating, Barnyardgrass [2, 16]: 2 | Plant response rating, Barnyardgrass [2, 17]: 3 | Plant response rating, Barnyardgrass [2, 18]: 3 | Plant response rating, Barnyardgrass [2, 19]: 4 | Plant response rating, S. Flatsedge [3, 16]: 2 | S. Flatsedge plant response rating [3, 20]: 5 | Plant response rating, S. Flatsedge [3, 18]: 6 | Plant response rating, S. Flatsedge [3, 19]: 7 | Plant response rating, Rice (rice (Oryza sativa); [16]): 1 | Rice plant response rating (rice (Oryza sativa); [20]): 1 | Plant response rating, Rice (rice (Oryza sativa); [18]): 2 | Plant response rating, Rice (rice (Oryza sativa); [19]): 2 | Plant response rating, Sugarbeets ([4]; Rate 62 g/ha, Postemergence): 9 | Sugarbeets plant response rating ([4]; Rate 62 g/ha, Preemergence): 8 | Sugarbeets plant response rating ([4]; Rate 125 g/ha, Postemergence): 10 | Plant response rating, Sugarbeets ([4]; Rate 125 g/ha, Preemergence): 10 | Plant response rating, Sugarbeets ([4]; Rate 250 g/ha, Postemergence): 10 | Plant response rating, Sugarbeets [4, 21]: 10 | Plant response rating, Morningglory ([5]; Rate 62 g/ha, Postemergence): 7 | Morningglory plant response rating ([5]; Rate 62 g/ha, Preemergence): 1 | Morningglory plant response rating ([5]; Rate 125 g/ha, Postemergence): 8 | Morningglory plant response rating ([5]; Rate 125 g/ha, Preemergence): 2 | Plant response rating, Morningglory ([5]; Rate 250 g/ha, Postemergence): 10 | Plant response rating, Morningglory [5, 21]: 3 | Wild oats plant response rating (wild oat (Avena fatua); Rate 62 g/ha, Postemergence): 1 | Wild oats plant response rating (wild oat (Avena fatua); Rate 62 g/ha, Preemergence): 2 | Wild oats plant response rating (wild oat (Avena fatua); Rate 125 g/ha, Postemergence): 3 | Plant response rating, Wild oats (wild oat (Avena fatua); Rate 125 g/ha, Preemergence): 3 | Plant response rating, Wild oats (wild oat (Avena fatua); Rate 250 g/ha, Postemergence): 3 | Plant response rating, Wild oats (wild oat (Avena fatua); [21]): 4 | Plant response rating, Soybean (soybean (Glycine max); Rate 62 g/ha, Postemergence): 4 | Soybean plant response rating (soybean (Glycine max); Rate 62 g/ha, Preemergence): 0 | Soybean plant response rating (soybean (Glycine max); Rate 125 g/ha, Postemergence): 5 | Plant response rating, Soybean (soybean (Glycine max); Rate 125 g/ha, Preemergence): 0 | Plant response rating, Soybean (soybean (Glycine max); Rate 250 g/ha, Postemergence): 6 | Plant response rating, Soybean (soybean (Glycine max); [21]): 1 | Plant response rating, Bedstraw ([6]; Rate 62 g/ha, Postemergence): 6 | Bedstraw plant response rating ([6]; Rate 62 g/ha): 3 | Plant response rating, Bedstraw ([6]; Rate 125 g/ha, Postemergence): 6 | Bedstraw plant response rating ([6]; Rate 125 g/ha): 8 | Plant response rating, Bedstraw ([6]; Rate 250 g/ha, Postemergence): 10 | Plant response rating, Bedstraw [6, 21]: 10 | Plant response rating, Cocklebur ([7]; Rate 62 g/ha, Postemergence): 8 | Cocklebur plant response rating ([7]; Rate 62 g/ha): 0 | Plant response rating, Cocklebur ([7]; Rate 125 g/ha, Postemergence): 8 | Cocklebur plant response rating ([7]; Rate 125 g/ha): 0 | Plant response rating, Cocklebur ([7]; Rate 250 g/ha, Postemergence): 9 | Plant response rating, Cocklebur [7, 21]: 0 | Plant response rating, Rape (rape (Brassica napus); Rate 62 g/ha, Postemergence): 8 | Rape plant response rating (rape (Brassica napus); Rate 62 g/ha, Preemergence): 2 | Rape plant response rating (rape (Brassica napus); Rate 125 g/ha, Postemergence): 8 | Rape plant response rating (rape (Brassica napus); Rate 125 g/ha, Preemergence): 10 | Plant response rating, Rape (rape (Brassica napus); Rate 250 g/ha, Postemergence): 8 | Plant response rating, Rape (rape (Brassica napus); [21]): 10 | Plant response rating, Blackgrass ([8]; Rate 62 g/ha, Postemergence): 1 | Blackgrass plant response rating ([8]; Rate 62 g/ha): 1 | Plant response rating, Blackgrass ([8]; Rate 125 g/ha, Postemergence): 2 | Blackgrass plant response rating ([8]; Rate 125 g/ha): 2 | Plant response rating, Blackgrass ([8]; Rate 250 g/ha, Postemergence): 5 | Plant response rating, Blackgrass [8, 21]: 4 | Plant response rating, Nutsedge ([9]; Rate 62 g/ha, Postemergence): 0 | Nutsedge plant response rating ([9]; Rate 62 g/ha, Preemergence): 0 | Nutsedge plant response rating ([9]; Rate 125 g/ha, Postemergence): 0 | Nutsedge plant response rating ([9]; Rate 125 g/ha, Preemergence): 0 | Plant response rating, Nutsedge ([9]; Rate 250 g/ha, Postemergence): 1 | Plant response rating, Nutsedge [9, 21]: 0 | Plant response rating, B. signalgrass ([10]; Rate 62 g/ha, Postemergence): 1 | B. signalgrass plant response rating ([10]; Rate 62 g/ha): 2 | Plant response rating, B. signalgrass ([10]; Rate 125 g/ha, Postemergence): 2 | B. signalgrass plant response rating ([10]; Rate 125 g/ha): 6 | Plant response rating, B. signalgrass ([10]; Rate 250 g/ha, Postemergence): 2 | Plant response rating, B. signalgrass ([10]; Rate 250 g/ha, Postemergence as printed in head r139 (second section for compounds 26-50)): 7 | Plant response rating, Crabgrass ([11]; Rate 62 g/ha, Postemergence): 1 | Crabgrass plant response rating ([11]; Rate 62 g/ha): 1 | Plant response rating, Crabgrass ([11]; Rate 125 g/ha, Postemergence): 2 | Crabgrass plant response rating ([11]; Rate 125 g/ha): 1 | Plant response rating, Crabgrass ([11]; Rate 250 g/ha, Postemergence): 2 | Plant response rating, Crabgrass [11, 21]: 3 | Wheat plant response rating ([12]; Rate 62 g/ha, Postemergence): 1 | Wheat plant response rating ([12]; Rate 62 g/ha, Preemergence): 0 | Wheat plant response rating ([12]; Rate 125 g/ha, Postemergence): 2 | Plant response rating, Wheat ([12]; Rate 125 g/ha, Preemergence): 0 | Plant response rating, Wheat ([12]; Rate 250 g/ha, Postemergence): 2 | Plant response rating, Wheat [12, 21]: 0 | Plant response rating, Corn (corn (Zea mays); Rate 62 g/ha, Postemergence): 1 | Corn plant response rating (corn (Zea mays); Rate 62 g/ha): 0 | Plant response rating, Corn (corn (Zea mays); Rate 125 g/ha, Postemergence): 1 | Corn plant response rating (corn (Zea mays); Rate 125 g/ha): 0 | Plant response rating, Corn (corn (Zea mays); Rate 250 g/ha, Postemergence): 1 | Plant response rating, Corn (corn (Zea mays); [21]): 0 | Plant response rating, Giant foxtail ([13]; Rate 62 g/ha, Postemergence): 1 | Giant foxtail plant response rating ([13]; Rate 62 g/ha, Preemergence): 1 | Giant foxtail plant response rating ([13]; Rate 125 g/ha, Postemergence): 1 | Giant foxtail plant response rating ([13]; Rate 125 g/ha, Preemergence): 2 | Plant response rating, Giant foxtail ([13]; Rate 250 g/ha, Postemergence): 2 | Plant response rating, Giant foxtail [13, 21]: 5 | Plant response rating, Velvetleaf ([14]; Rate 62 g/ha, Postemergence): 4 | Velvetleaf plant response rating ([14]; Rate 62 g/ha, Preemergence): 6 | Velvetleaf plant response rating ([14]; Rate 125 g/ha, Postemergence): 8 | Plant response rating, Velvetleaf ([14]; Rate 125 g/ha, Preemergence): 9 | Plant response rating, Velvetleaf ([14]; Rate 250 g/ha, Postemergence): 9 | Plant response rating, Velvetleaf [14, 21]: 10 | Plant response rating, Redroot pigweed ([15]; Rate 62 g/ha, Postemergence): 6 | Redroot pigweed plant response rating ([15]; Rate 62 g/ha, Preemergence): 8 | Redroot pigweed plant response rating ([15]; Rate 125 g/ha, Postemergence): 9 | Redroot pigweed plant response rating ([15]; Rate 125 g/ha, Preemergence): 10 | Plant response rating, Redroot pigweed ([15]; Rate 250 g/ha, Postemergence): 9 | Plant response rating, Redroot pigweed [15, 21]: 10
